# Target: TRK A (Homo sapiens (Human), UniProt P04629)
# Test: HotSpot assay platform, radiometric kinase inhibition
# Type: biochemical
# Conditions: 100 μM ATP, class symbol
# Experimental: The HotSpot assay platform was used to measure kinase/inhibitor interactions as described in Anastassiadis et al., Nat Biotechnol. 29:1039-45, 2011. In brief, for each reaction, kinase and substrate were mixed in a buffer containing 20 mM HEPES (pH 7.5), 10 mM MgCl2, 1 mM EGTA, 0.02% Brij35, 0.02 mg/mL BSA, 0.1 mM Na3VO4, 2 mM DTT, and 1% DMSO. Compounds were then added to each reaction mixture. After a 20-min incubation, ATP (Sigma-Aldrich) and [γ-33P] ATP (PerkinElmer) were added at a final total concentration of 100 μM. Reactions were carried out at room temperature for 2 h and spotted onto P81 ion exchange cellulose chromatography paper (Whatman). Filter paper was washed in 0.75% phosphoric acid to remove unincorporated ATP. The percent remaining kinase activity relative to a vehicle-containing (DMSO) kinase reaction was calculated for each kinase/inhibitor pair. Outliers were identified and removed as described in Anastassiadis et al., Nat Biotechnol. 29:1039-45, 2011. IC50 values were calculated using Prism 5 (GraphPad).
# TRK A, sequence (P04629 33-796): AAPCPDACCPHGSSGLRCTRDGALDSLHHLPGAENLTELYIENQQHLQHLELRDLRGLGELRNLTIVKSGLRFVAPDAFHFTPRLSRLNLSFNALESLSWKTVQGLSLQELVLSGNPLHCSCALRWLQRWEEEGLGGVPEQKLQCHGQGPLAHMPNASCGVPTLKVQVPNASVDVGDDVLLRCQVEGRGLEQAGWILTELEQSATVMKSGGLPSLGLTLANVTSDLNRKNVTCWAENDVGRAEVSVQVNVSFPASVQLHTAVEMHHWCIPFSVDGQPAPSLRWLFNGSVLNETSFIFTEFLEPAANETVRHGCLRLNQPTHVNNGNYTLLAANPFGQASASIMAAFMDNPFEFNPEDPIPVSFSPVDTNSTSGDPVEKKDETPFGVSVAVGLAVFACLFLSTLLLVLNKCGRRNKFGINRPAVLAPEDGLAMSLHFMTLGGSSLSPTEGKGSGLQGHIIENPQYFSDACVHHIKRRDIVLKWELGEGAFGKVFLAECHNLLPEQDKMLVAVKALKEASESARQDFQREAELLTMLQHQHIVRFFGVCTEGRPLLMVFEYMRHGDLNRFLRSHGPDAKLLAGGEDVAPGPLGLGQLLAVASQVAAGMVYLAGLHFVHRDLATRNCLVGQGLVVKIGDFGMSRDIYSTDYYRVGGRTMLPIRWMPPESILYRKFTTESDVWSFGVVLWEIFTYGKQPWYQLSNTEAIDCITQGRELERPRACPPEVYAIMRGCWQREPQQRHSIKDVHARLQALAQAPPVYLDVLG
row,SMILES,IC50
1,O=C1NC2(CCc3ncc(F)cc3[C@H]3[C@@H]4C[C@@H]4CN3c3ccn4ncc1c4n3)CC2 [Compound 19-5],< 100 nM
2,"C[C@@H]1CCc2ccccc2N2CCCN2c2ccn3ncc(c3n2)C(=O)N1 [Compound 1-17, (R,1^3E,1^4E)-6-methyl-7-aza-1(5,3)-pyrazolo[1,5-a]pyrimidine-2(1,2)-pyrazolidina-3(1,2)-benzacyclooctaphan-8-one]",< 100 nM
3,O=C1N[C@H](C2CC2)CCc2ncc(F)cc2[C@@H]2[C@H]3C[C@H]3CN2c2ccn3ncc1c3n2 [Compound 20-6],> 1000 nM
4,C[C@@H]1CCc2ncc(F)cc2[C@H]2[C@H]3[C@@H](CN2c2ccn4ncc(c4n2)C(=O)N1)C3(C)C [Compound 24-10],< 100 nM
5,"C=C1c2ncc(F)cc2[C@@H]2[C@H]3C[C@H]3CN2c2ccn3ncc(c3n2)C(=O)N[C@@H]1C (single isomer, unassigned) [Compound 21-5]",100 to 1000 nM
6,C[C@@H]1CCn2cc(nn2)[C@H]2CCCN2c2ccn3ncc(c3n2)C(=O)N1 [Compound 14-6],> 1000 nM
7,O=C1NC2(CCc3ncc(F)cc3[C@@H]3[C@H]4C[C@H]4CN3c3ccn4ncc1c4n3)CC2 [Compound 19-6],> 1000 nM
8,"C=C1c2ncc(F)cc2[C@H]2[C@@H]3C[C@@H]3CN2c2ccn3ncc(c3n2)C(=O)N[C@@H]1C (single isomer, unassigned) [Compound 21-4]",< 100 nM
9,C[C@@H]1CCc2ncc(F)cc2[C@H]2[C@@H]3[C@H](CN2c2ccn4ncc(c4n2)C(=O)N1)C3(C)C [Compound 17-12],> 1000 nM
10,C[C@@H]1CCn2cc(F)cc(c2=O)N2CCCN2c2ccn3ncc(c3n2)C(=O)N1 [Compound 3-3],> 1000 nM
11,O=C1N[C@H](C2CC2)CCc2ncc(F)cc2[C@H]2[C@@H]3C[C@@H]3CN2c2ccn3ncc1c3n2 [Compound 20-5],< 100 nM
12,"C[C@H]1CNC(=O)c2cnn3ccc(nc23)N2C[C@@H]3C[C@@H]3[C@H]2c2cc(F)cn1c2=O (single isomer, unassigned) [Compound 23-4]",> 1000 nM
13,C[C@@H]1CCc2ncc(F)cc2[C@@H]2[C@@H]3[C@H](CN2c2ccn4ncc(c4n2)C(=O)N1)C3(C)C [Compound 24-11],> 1000 nM
14,C[C@@H]1CCc2ncc(F)cc2N2CC3(CC3)CN2c2ccn3ncc(c3n2)C(=O)N1 [Compound 6-10],< 100 nM
15,C[C@@H]1CCOc2ncc(F)cc2N2CCCN2c2ccn3ncc(c3n2)C(=O)N1 [Compound 4-3],< 100 nM
16,C[C@H]1CNC(=O)c2cnn3ccc(nc23)N2C[C@H]3C[C@H]3[C@@H]2c2cc(F)cnc2O1 [Compound 22-6],< 100 nM
17,C[C@@H]1CCn2cc(nn2)[C@@H]2CCCN2c2ccn3ncc(c3n2)C(=O)N1 [Compound 14-7],> 1000 nM
18,C[C@H]1CNC(=O)c2cnn3ccc(nc23)N2C[C@@H]3C[C@@H]3[C@H]2c2cc(F)cnc2O1 [Compound 22-7],> 1000 nM
19,C[C@@H]1CCc2ncc(F)cc2N2CCC(=O)N2c2ccn3ncc(c3n2)C(=O)N1 [Compound 5-6],100 to 1000 nM
20,C[C@@H]1CCn2nncc2[C@H]2CCCN2c2ccn3ncc(c3n2)C(=O)N1 [Compound 15-10],> 1000 nM
21,"C[C@H]1CNC(=O)c2cnn3ccc(nc23)N2C[C@H]3C[C@H]3[C@@H]2c2cc(F)cn1c2=O (single isomer, unassigned) [Compound 23-3]",< 100 nM

# Further lines, results first:
row,IC50,SMILES
1,> 1000 nM,C[C@@H]1CCc2ncc(F)cc2[C@@H]2[C@H]3C[C@H]3CN2c2ccn3ncc(c3n2)C(=O)N1 [Compound 18-12]
2,< 100 nM,CC1c2ncc(F)cc2[C@H]2CCCN2c2ccn3ncc(c3n2)C(=O)N[C@@H]1C (some centres unmarked) [Compound 11-6]
3,< 100 nM,C[C@@H]1CCc2ncncc2[C@H]2CCCN2c2ccc3ncc(n3n2)C(=O)N1 [Compound 13-11]
4,< 100 nM,C[C@@H]1CCc2ncc(F)cc2[C@H]2[C@@H]3C[C@@H]3CN2c2ccn3ncc(c3n2)C(=O)N1 [Compound 18-11]
5,< 100 nM,C[C@@H]1/C=C\c2ncc(F)cc2[C@H]2CCCN2c2ccn3ncc(c3n2)C(=O)N1 [Compound 10-5]
6,100 to 1000 nM,C[C@@H]1/C=C\c2ncc(F)cc2[C@@H]2CCCN2c2ccn3ncc(c3n2)C(=O)N1 [Compound 10-6]
7,< 100 nM,C[C@@H]1/C=C/c2ncc(F)cc2[C@H]2CCCN2c2ccn3ncc(c3n2)C(=O)N1 [Compound 9-7]
8,> 1000 nM,C[C@@H]1CCc2ncc(F)cc2[C@@H]2CCCN2c2ccc3ncc(n3n2)C(=O)N1 [Compound 7-12]
9,100 to 1000 nM,C[C@@H]1CCc2ncncc2[C@@H]2CCCN2c2ccc3ncc(n3n2)C(=O)N1 [Compound 13-12]
10,> 1000 nM,C[C@@H]1CCc2cnc(F)cc2C2CCCN2c2ccc3ncc(n3n2)C(=O)N1 (some centres unmarked) [Compound 12-12]
11,< 100 nM,"C[C@@H]1CCc2ncc(F)cc2N2CCCN2c2ccn3ncc(c3n2)C(=O)N1 [Compound 1-8, (R,1^3E,1^4E)-3^5-fluoro-6-methyl-7-aza-1(5,3)-pyrazolo[1,5-a]pyrimidine-3(3,2)-pyridina-2(1,2)-pyrazalidinacyclooctaphan-8-one]"
12,> 1000 nM,"C[C@@H]1CCc2ncc(F)cc2N2CCC[C@@H]2c2ccn3ncc(c3n2)C(=O)N1 (single isomer, unassigned) [Compound 16-11]"
13,100 to 1000 nM,CC1(C)CCc2ncc(F)cc2C2CCCN2c2ccn3ncc(c3n2)NC1=O (racemic) [Compound 8-8]
14,> 1000 nM,C[C@@H]1CCc2ncc(F)cc2[C@@H]2[C@H]3[C@@H](CN2c2ccn4ncc(c4n2)C(=O)N1)C3(C)C [Compound 17-13]
15,> 1000 nM,"C[C@@H]1CCc2ncc(F)cc2N2CCC[C@H]2c2ccn3ncc(c3n2)C(=O)N1 (single isomer, unassigned) [Compound 16-10]"
16,< 100 nM,C[C@@H]1CCc2ncc(F)cc2[C@H]2CCCN2c2ccc3ncc(n3n2)C(=O)N1 [Compound 7-11]
17,> 1000 nM,C=C1c2ncc(F)cc2[C@@H]2CCCN2c2ccn3ncc(c3n2)C(=O)N[C@@H]1C [Compound 11-5]
